This series can be described thus: Thermogravimetric analysis (TGA), degradation temperature. Format: physicochemical. As for the experimental part:
The choice of suitable thermoplastics must also account for the biocide degradation temperature. The temperature of the melted thermoplastic at the point of biocide addition can be any temperature up to the biocide degradation temperature, preferably at least 20° C., and more preferably at least 40° C. below the biocide degradation temperature. Biocide degradation temperatures are most conveniently determined by thermogravimetric analysis (TGA). Unless hot melt mixing is to be performed in an inert atmosphere, TGA should be performed in air to account for oxidative degradation. TGA can be performed according to ISO 11358-1:2014.
Imidacloprid has a degradation temperature of about 274° C. (onset of weight loss, see the thermogravimetric analysis data in FIG. 1). Accordingly, the mixing of imidacloprid with any thermoplastic by hot melt extrusion (HME) should be performed at temperatures less than about 270° C.
Degradation temperatures were established by thermogravimetric analysis (TGA, see FIG. 1) with the following results: bifenthrin 195° C., triadimefon 195° C., and cyproconazole 205° C. These temperatures indicate upper limits for processing these biocides by HME. The melting points for these biocides are: bifenthrin 57-64.6° C., triadimefon 82.3° C., and cyproconazole 106.2-106.9° C.).
“Friable biocide-composites” comprising a biocide, a thermoplastic and an embrittling agent were formed by HME along with a “solidified biocide-composite” comprising a biocide and an embrittling agent, i.e. no thermoplastic. The organoclay Tixogel MP 100 was used as the embrittling agent. Tixogel MP 100 has a thermal degradation temperature of 222° C. measured as onset of weight loss (FIG. 7, note a slight initial loss of moisture). This temperature represents a practical upper limit for HME when using Tixogel MP 100.

Each structure is given as a SMILES string. Like-named read-outs stand apart in the source and are kept apart here.

The compound `CC(C1CC1)C(O)(Cn1cncn1)c1ccc(Cl)cc1` (stereo not drawn) [cyproconazole, α-(4-chlorophenyl)-α-(1-cyclopropylethyl)-1H-1,2,4-triazole-1-ethanol] registered a Degradation temperature of 205 °C. Where the note is “TGA, onset of weight loss”, `CC(C)(C)C(=O)C(Oc1ccc(Cl)cc1)n1cncn1` (stereo not shown) [triadimefon, 1-(4-chlorophenoxy)-3,3-dimethyl-1-(1H-1,2,4-triazol-1-yl)-2-butanone] had a Degradation temperature of 195 °C. The same measure, in the same setting: with `Cc1c(COC(=O)[C@@H]2[C@H](/C=C(\Cl)C(F)(F)F)C2(C)C)cccc1-c1ccccc1` (relative stereo) [bifenthrin, (2-methyl[1,1′-biphenyl]-3-yl)methyl (1R,3R)-rel-3-[(1Z)-2-chloro-3,3,3-trifluoro-1-propen-1-yl]-2,2-dimethylcyclopropanecarboxylate] the figure was 195 °C. As for `O=[N+]([O-])NC1=NCCN1Cc1ccc(Cl)nc1` [Imidacloprid, (2E)-1-[(6-chloro-3-pyridinyl)methyl]-N-nitro-2-imidazolidinimin], the Degradation temperature entry was “about 274 °C”.
